Data: ChEMBL document CHEMBL5260810, “Inhibition of bromodomain-containing protein 9 for the prevention of epigenetically-defined drug resistance” (Bioorg Med Chem Lett, 2017)

Legend:
MHH-PREB-1 = test: Cytotoxicity against human MHH-PREB-1 cells measured after 8 days; type: functional, cell-based; details: MHH-PREB-1, 192 h
[1] = Cytotoxicity against human VMRC-LCD cells measured after 8 days; type: functional, cell-based; details: 192 h
NCI-H2122 = test: Cytotoxicity against human NCI-H2122 cells measured after 8 days; type: functional, cell-based; details: NCI-H2122, 192 h
[2] = biological target: SWI/SNF-related matrix-associated actin-dependent regulator of chromatin subfamily A member 2 (Homo sapiens, UniProt P51531); test: Binding affinity to human partial length SMARCA2 (S1377 to Q1486 residues) expressed in bacterial expression system by BROMOscan assay
[3] = biological target: T1, Muscarinic acetylcholine receptor M1 (Homo sapiens) (UniProt P11229); test: Displacement of [125I]pirenzepine from human recombinant M1 receptor at 10 uM after 60 mins by scintillation counting analysis relative to control
T1 sequence (whole entry): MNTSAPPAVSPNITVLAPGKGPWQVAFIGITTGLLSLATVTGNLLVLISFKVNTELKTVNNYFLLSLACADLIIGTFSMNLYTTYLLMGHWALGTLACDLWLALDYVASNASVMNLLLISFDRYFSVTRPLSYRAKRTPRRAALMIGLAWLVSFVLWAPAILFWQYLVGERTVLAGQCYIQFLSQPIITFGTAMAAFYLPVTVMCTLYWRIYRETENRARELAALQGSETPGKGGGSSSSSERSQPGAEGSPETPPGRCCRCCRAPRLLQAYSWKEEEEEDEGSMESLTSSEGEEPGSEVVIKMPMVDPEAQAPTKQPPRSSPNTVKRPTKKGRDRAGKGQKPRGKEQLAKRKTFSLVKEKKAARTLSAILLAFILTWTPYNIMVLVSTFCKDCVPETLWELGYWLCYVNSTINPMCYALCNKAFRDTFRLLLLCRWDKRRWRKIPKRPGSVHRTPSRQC

[4] = Cytotoxicity against human HNT-34 cells measured after 8 days; type: functional, cell-based; details: HNT-34, 192 h
EOL1 = test: Cytotoxicity against human EOL1 cells measured after 8 days; type: functional, cell-based; details: EOL1, 192 h
ABC-1 = test: Cytotoxicity against human ABC-1 cells measured after 8 days; type: functional, cell-based; details: ABC-1, 192 h
HCC78 = test: Cytotoxicity against human HCC78 cells measured after 8 days; type: functional, cell-based; details: HCC78, 192 h
HCC1954 = test: Cytotoxicity against human HCC1954 cells measured after 8 days; type: functional, cell-based; details: HCC1954, 192 h
UMC-11 = test: Cytotoxicity against human UMC-11 cells measured after 8 days; type: functional, cell-based; details: UMC-11, 192 h
[5] = Cytotoxicity against human HCC4011 cells measured after 8 days; type: functional, cell-based; details: HCC4011, 192 h
DV-90 = test: Cytotoxicity against human DV-90 cells measured after 8 days; type: functional, cell-based; details: DV-90, 192 h
[6] = biological target: T2, Interleukin-1 receptor-associated kinase 4 (Homo sapiens) (UniProt Q9NWZ3); test: Inhibition of IRAK4 (unknown origin) at 1 uM relative to control
T2 sequence (whole entry): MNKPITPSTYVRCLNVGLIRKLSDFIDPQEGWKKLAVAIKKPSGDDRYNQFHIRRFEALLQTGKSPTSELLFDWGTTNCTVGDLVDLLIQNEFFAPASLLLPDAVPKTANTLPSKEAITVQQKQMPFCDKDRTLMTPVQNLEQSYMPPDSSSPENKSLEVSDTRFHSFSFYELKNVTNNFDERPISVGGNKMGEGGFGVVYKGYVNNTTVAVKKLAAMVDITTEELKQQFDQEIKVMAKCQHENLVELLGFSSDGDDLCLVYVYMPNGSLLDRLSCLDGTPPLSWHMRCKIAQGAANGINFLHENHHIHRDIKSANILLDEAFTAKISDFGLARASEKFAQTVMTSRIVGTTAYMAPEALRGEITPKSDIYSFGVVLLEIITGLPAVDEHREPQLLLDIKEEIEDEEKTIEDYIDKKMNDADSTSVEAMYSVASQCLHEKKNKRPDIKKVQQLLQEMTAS

NAMALVA = test: Cytotoxicity against human NAMALVA cells measured after 8 days; type: functional, cell-based; details: 192 h
NCI-H82 = test: Cytotoxicity against human NCI-H82 cells measured after 8 days; type: functional, cell-based; details: NCI-H82, 192 h
[7] = biological target: L-type calcium channel, verapamil binding site (Rattus norvegicus, UniProt P22002+P27732+Q02485); test: Displacement of [3H]D 888 from rat brain L-type calcium channel verapamil binding site at 10 uM after 120 mins by scintillation counting analysis relative to control; details: rat brain L-type calcium channel preparation, probe [3H]D 888, read-out: Activity
MFM-223 = test: Cytotoxicity against human MFM-223 cells measured after 8 days; type: functional, cell-based; details: MFM-223, 192 h
DAN-G = test: Cytotoxicity against human DAN-G cells measured after 8 days; type: functional, cell-based; details: 192 h
HCC95 = test: Cytotoxicity against human HCC95 cells measured after 8 days; type: functional, cell-based; details: HCC95, 192 h
[8] = biological target: Bromodomain testis-specific protein (Homo sapiens, UniProt Q58F21); test: Binding affinity to BRDT bromodomain 1/2 (unknown origin) by BROMOscan assay
MKN-45 = test: Cytotoxicity against human MKN-45 cells measured after 8 days; type: functional, cell-based; details: MKN-45, 192 h
[9] = Cytotoxicity against human NCI-H2810 cells measured after 8 days; type: functional, cell-based; details: NCI-H2810, 192 h
[10] = biological target: 5-hydroxytryptamine receptor 2B (Homo sapiens) (UniProt P41595); test: Displacement of [125I]+/-DOI from human recombinant 5-HT2B receptor at 10 uM after 60 mins by scintillation counting analysis relative to control
KARPAS-422 = test: Cytotoxicity against human KARPAS-422 cells measured after 8 days; type: functional, cell-based; details: KARPAS-422, 192 h
SCC-3 = test: Cytotoxicity against human SCC-3 cells measured after 8 days; type: functional, cell-based; details: SCC-3, 192 h
DLD-1 = test: Cytotoxicity against human DLD-1 cells measured after 8 days; type: functional, cell-based; details: DLD-1, 192 h

5-hydroxytryptamine receptor 2B (Homo sapiens), sequence (P41595 whole entry): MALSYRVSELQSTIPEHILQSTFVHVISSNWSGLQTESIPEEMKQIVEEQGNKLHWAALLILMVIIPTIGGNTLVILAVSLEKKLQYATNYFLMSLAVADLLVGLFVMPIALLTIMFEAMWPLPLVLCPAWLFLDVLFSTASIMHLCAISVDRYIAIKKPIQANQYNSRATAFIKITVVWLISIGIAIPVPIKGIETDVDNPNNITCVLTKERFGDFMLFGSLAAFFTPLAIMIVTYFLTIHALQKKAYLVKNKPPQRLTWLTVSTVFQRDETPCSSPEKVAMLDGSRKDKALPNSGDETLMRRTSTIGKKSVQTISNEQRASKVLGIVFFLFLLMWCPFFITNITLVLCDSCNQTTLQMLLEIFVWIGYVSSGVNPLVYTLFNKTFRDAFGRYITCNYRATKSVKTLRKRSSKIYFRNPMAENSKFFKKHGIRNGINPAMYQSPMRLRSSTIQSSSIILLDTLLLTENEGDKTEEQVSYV
SWI/SNF-related matrix-associated actin-dependent regulator of chromatin subfamily A member 2, sequence (P51531 whole entry, the tested form may be a part): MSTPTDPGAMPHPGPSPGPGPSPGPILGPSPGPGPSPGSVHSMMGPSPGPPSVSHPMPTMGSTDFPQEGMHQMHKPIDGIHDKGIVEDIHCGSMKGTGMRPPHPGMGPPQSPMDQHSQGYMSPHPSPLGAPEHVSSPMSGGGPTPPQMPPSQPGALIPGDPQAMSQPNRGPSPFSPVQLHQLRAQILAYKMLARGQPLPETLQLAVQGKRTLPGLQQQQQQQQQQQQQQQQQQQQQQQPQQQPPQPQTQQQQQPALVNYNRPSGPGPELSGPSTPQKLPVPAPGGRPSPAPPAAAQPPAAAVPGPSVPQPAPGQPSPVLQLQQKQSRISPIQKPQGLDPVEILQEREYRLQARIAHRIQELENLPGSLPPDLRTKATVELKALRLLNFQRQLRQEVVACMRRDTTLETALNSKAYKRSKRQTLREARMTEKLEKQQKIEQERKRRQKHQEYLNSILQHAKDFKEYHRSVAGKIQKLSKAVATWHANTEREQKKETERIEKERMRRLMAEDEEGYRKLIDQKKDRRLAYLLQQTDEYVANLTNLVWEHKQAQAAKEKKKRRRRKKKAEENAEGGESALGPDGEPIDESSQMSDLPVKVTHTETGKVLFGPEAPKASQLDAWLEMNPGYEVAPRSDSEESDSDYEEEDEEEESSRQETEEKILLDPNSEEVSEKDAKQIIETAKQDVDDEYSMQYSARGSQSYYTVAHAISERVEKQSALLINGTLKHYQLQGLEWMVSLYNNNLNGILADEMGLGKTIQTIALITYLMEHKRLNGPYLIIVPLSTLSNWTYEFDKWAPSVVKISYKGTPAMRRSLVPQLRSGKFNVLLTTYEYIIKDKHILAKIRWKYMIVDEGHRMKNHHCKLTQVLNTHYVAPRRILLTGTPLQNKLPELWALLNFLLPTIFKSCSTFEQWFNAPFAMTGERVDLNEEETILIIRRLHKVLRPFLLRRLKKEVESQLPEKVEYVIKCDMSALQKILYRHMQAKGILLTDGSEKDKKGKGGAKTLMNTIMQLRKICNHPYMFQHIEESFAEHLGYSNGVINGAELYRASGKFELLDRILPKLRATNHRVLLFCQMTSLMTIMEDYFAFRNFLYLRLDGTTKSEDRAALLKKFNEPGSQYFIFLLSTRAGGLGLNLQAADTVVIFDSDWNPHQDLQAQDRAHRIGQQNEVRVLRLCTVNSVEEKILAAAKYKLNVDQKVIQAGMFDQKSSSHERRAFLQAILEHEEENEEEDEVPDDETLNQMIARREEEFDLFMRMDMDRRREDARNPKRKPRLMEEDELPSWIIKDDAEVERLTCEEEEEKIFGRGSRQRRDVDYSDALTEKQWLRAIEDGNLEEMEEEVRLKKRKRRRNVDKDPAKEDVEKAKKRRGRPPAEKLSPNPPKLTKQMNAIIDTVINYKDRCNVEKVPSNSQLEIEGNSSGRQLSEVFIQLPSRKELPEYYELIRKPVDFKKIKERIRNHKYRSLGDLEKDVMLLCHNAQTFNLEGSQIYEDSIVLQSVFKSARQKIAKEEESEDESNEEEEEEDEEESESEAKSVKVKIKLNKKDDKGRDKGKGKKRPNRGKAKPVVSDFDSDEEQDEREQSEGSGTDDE

SMILES | IC50 (MHH-PREB-1) | IC50 [1] | IC50 (NCI-H2122) | Kd [2] | Activity [3] | IC50 [4] | IC50 (EOL1) | IC50 (ABC-1) | IC50 (HCC78) | IC50 (HCC1954) | IC50 (UMC-11) | IC50 [5] | IC50 (DV-90) | inhibition [6] | IC50 (NAMALVA) | IC50 (NCI-H82) | inhibition at 2 h, 10 µM [7] | IC50 (MFM-223) | IC50 (DAN-G) | Kd [8] | further results
C/C=C/Cn1cc(-c2ccc(C(C)(C)O)cc2OC)c2cc[nH]c2c1=O | 20 µM | 20 µM | 20 µM | > 10 µM | 1% | 8.14 µM | 3.3 µM | 20 µM | 20 µM | 20 µM | 20 µM | 20 µM | 20 µM | 6% | 20 µM | 20 µM | -3% | 11.6 µM | 20 µM | 1.2 µM | IC50 (HCC95): 20 µM; IC50 (MKN-45): 20 µM; IC50 [9]: 20 µM; Activity [10]: -2%; IC50 (KARPAS-422): 20 µM; IC50 (SCC-3): 20 µM; IC50 (DLD-1): 20 µM
C/C=C/Cn1cc(-c2cc(OC)c(C(C)(C)O)cc2OC)c2cc(C)[nH]c2c1=O |  |  |  | > 10 µM |  |  |  |  |  |  |  |  |  |  |  |  |  |  |  | 6.2 µM | 
C/C=C/Cn1cc(-c2ccc(C(=O)N3CCOCC3)cc2)c2cc[nH]c2c1=O | 20 µM | 20 µM | 20 µM | > 10 µM | -8% | 8.35 µM | 0.95 µM | 20 µM | 20 µM | 20 µM | 20 µM | 20 µM | 20 µM | -4.9% | 20 µM | 20 µM | 7% | 20 µM | 20 µM | 2.9 µM | IC50 (HCC95): 20 µM; IC50 (MKN-45): 20 µM; IC50 [9]: 20 µM; Activity [10]: 22%; IC50 (KARPAS-422): 14.4 µM; IC50 (SCC-3): 20 µM; IC50 (DLD-1): 20 µM
C/C=C/Cn1cc(-c2cc(OC)c(C(=O)N3CCOCC3)cc2OC)c2cc(C)[nH]c2c1=O | 2 µM | 2 µM | 2 µM | > 10 µM | -1% | 0.54 µM | 1.34 µM | 2 µM | 2 µM | 2 µM | 2 µM | 2 µM | 2 µM | -3.5% | 2 µM | 2 µM | 3% | 1.46 µM | 2 µM | > 10 µM | IC50 (HCC95): 2 µM; IC50 (MKN-45): 2 µM; IC50 [9]: 2 µM; Activity [10]: 6%; IC50 (KARPAS-422): 2 µM; IC50 (SCC-3): 2 µM; IC50 (DLD-1): 2 µM
